# From US12083191B2, “Composition and methods for imaging cells” (CASE WESTERN RESERVE UNIVERSITY, priority 2009, dated 2024)
# Experiment: solution-based β-gal activity assay (ONPG hydrolysis)
# Format: biochemical
# Description: For the solution-based activity assay, β-gal fragments were added, either individually or in complementing pairs, to uncoated 96-well microtiter assay plates in equal molar amounts and incubated at room temperature on an orbital rocker for 1 hr. Full-length β-gal (1 mg/ml) was serially diluted to create a standardized concentration curve. At time zero, the assay was initiated by using a 12-channel pipettor to add 20 μl of ONPG (4 mg/ml) to each well of the microplate. In the endpoint assay, the microplates were incubated at room temperature for the appropriate length of time, e.g., 30 min, before the reaction was terminated by the addition of 50 μl of 1 M Na2CO3. Then, the absorbance (420 nm) was read in a Tecan Infinite 200 plate reader (Tecan; San Jose, CA). The absorbance data was transferred to a Microsoft Excel spreadsheet and the amount of ONPG substrate hydrolyzed was calculated.
# To test the ability of the split-fragments to spontaneously refold and aggregate into tetramers in solution, complementing pairs of β-gal fragments were combined and assessed in a solution-based activity assay. Levels of active β-gal expression were measured by its catalytic hydrolysis of ortho-nitrophenyl-β-D-galactopyranoside (ONPG), a synthetic chromogenic substrate, to orthonitrophenol (ONP), a yellow product (λmax=420 nm). […]
substance,measurement,setting,value
"Full length β-gal: purified full length biotinylated E. coli β-galactosidase prepared in the laboratory, 135 kDa",time at which optimally active,"19 hour incubation period, FIG. 7C",30 min
same,enzyme activity versus commercially available purchased β-gal,"increasing amounts of enzyme, FIG. 7A",virtually identical
